Measurements: publication PMC12093506, “Synthesis, characterization, and in vitro and in silico α-glucosidase inhibitory evolution of novel N′-(2-cyclopentyl-2-phenylacetyl)cinnamohydrazide derivatives” (RSC Advances, 2025)
Where two headings read alike, the source gives them in different places.

Columns and labels:
[1] = target: T1, α-glucosidase (maltase) enzyme from Yeast (Saccharomyces cerevisiae, UniProt P53341); test: biochemical; assay type: biochemical
T1 construct: purchased Sisco Research Laboratories Pvt; Ltd
T1 sequence (P53341 whole entry): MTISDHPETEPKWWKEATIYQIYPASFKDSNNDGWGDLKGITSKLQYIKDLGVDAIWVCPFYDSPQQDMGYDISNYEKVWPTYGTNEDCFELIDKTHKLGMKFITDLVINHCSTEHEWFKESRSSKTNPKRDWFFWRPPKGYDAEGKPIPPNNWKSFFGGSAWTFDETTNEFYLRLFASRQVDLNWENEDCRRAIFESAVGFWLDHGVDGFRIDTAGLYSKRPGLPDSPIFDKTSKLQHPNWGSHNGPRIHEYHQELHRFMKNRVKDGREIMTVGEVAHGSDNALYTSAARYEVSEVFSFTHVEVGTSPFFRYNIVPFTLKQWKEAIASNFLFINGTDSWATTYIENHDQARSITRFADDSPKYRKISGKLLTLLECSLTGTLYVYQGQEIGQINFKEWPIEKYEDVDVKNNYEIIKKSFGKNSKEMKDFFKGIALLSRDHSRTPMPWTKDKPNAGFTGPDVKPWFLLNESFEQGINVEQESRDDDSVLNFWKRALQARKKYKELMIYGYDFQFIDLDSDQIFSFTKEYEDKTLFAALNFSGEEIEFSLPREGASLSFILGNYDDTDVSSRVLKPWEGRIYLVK
Description: The test compounds were evaluated for their α-glucosidase inhibitory activity following the methodology outlined by Pistia et al.[62] and Bhatia et al.[63] […] The compounds at varied concentrations ranging from 50 to 200 μg mL^−1 were combined with 50 μL of α-glucosidase (maltase) enzyme solution (1 U mL^−1) from Yeast (Sisco Research Laboratories Pvt. Ltd). The mixer was placed at a temperature of 37 °C for duration of 15 minutes, after the addition of 0.1 M phosphate buffer (pH 6.8). Afterward, 25 μl of substrate buffer was introduced into the system to initiate the reaction, and the incubation was prolonged at a temperature of 37 °C for a length of 15 minutes. Finally, the reaction was stopped by adding 50 μl of a 0.2 M sodium carbonate solution, thereby terminating the processes. The measurement was determined at a wavelength of 450 nm. […] The measurement of enzyme activity was carried out as follows.
The formula for calculating the percentage is (ODblank − ODsample) divided by ODblank, multiplied by 100.
A unit of enzyme may be accurately defined as the amount of α-glucosidase enzyme required to generate one micromole of p-nitrophenol (product) from p-nitrophenyl-α-D-glucopyranoside (substrate) for a time of one minute. The IC50, representing the concentration required to inhibit 50% of the enzyme activity, was determined by fitting a regression equation to a graph that plotted concentration (varying from 50–200 μg mL^−1) on the X-axis and percentage of inhibition on the Y-axis for various fractions and extracts.

α-glucosidase = details: cited from earlier work
[2] = yeast α-glucosidase (maltase) 1 U mL^−1, phosphate buffer pH 6.8, 37 °C
[3] = yeast α-glucosidase (maltase) 1 U mL^−1, phosphate buffer pH 6.8, 37 °C, read-out: IC50 (α-glucosidase inhibition)
[4] = hydrazine-type compounds, Fig. 1
[5] = compounds with phenyl rings, Fig. 1

O=C(C=Cc1ccccc1)NNC(=O)C(c1ccccc1)C1CCCC1 (centres unmarked) [Compound 6a, N′-(2-Cyclopentyl-2-phenylacetyl)cinnamohydrazide]
IC50 [1]: 79.8 nM

O=C(C=Cc1ccccc1Br)NNC(=O)C(c1ccccc1)C1CCCC1 (centres unmarked) [Compound 6b, 3-(2-Bromophenyl)-N′-(2-cyclopentyl-2-phenylacetyl)acrylohydrazide]
IC50 [1]: 104 nM
IC50 (α-glucosidase inhibition) [1, 2]: moderate inhibition

O=C(C=Cc1cccc(Br)c1)NNC(=O)C(c1ccccc1)C1CCCC1 (centres unmarked) [Compound 6c, 3-(3-Bromophenyl)-N′-(2-cyclopentyl-2-phenylacetyl)acrylohydrazide]
IC50 [1]: 46.8 nM

O=C(C=Cc1ccc(Br)cc1)NNC(=O)C(c1ccccc1)C1CCCC1 (centres unmarked) [Compound 6d, 3-(4-Bromophenyl)-N′-(2-cyclopentyl-2-phenylacetyl)acrylohydrazide]
IC50 [1]: 64.8 nM

Cc1ccc(C=CC(=O)NNC(=O)C(c2ccccc2)C2CCCC2)cc1 (centres unmarked) [Compound 6e, N′-(2-Cyclopentyl-2-phenylacetyl)-3-(p-tolyl)acrylohydrazide]
IC50 [1]: 233 nM
IC50 (α-glucosidase inhibition) [1, 2]: moderate inhibition

O=C(/C=C/c1ccc(F)cc1)NNC(=O)C(c1ccccc1)C1CCCC1 (centres unmarked) [Compound 6f, 3-(4-Fluoro)-N′-(2-cyclopentyl-2-phenylacetyl)acrylohydrazide]
IC50 (α-glucosidase inhibition) [1, 2]: no inhibition effect

O=C(C=Cc1cccc([N+](=O)[O-])c1)NNC(=O)C(c1ccccc1)C1CCCC1 (centres unmarked) [Compound 6g, 3-(3-Nitrophenyl)-N′-(2-cyclopentyl-2-phenylacetyl)acrylohydrazide]
IC50 [1]: 28.5 nM

O=C(C=Cc1ccccc1)NNC(=O)C(c1cc(F)c(F)cc1F)C1CCCC1 (centres unmarked) [Compound 7a, N′-(2-cyclopentyl-2-(2,4,5-trifluorophenyl)acetyl)cinnamohydrazide]
IC50 [1]: 85.2 nM

Cc1ccc(C=CC(=O)NNC(=O)C(c2cc(F)c(F)cc2F)C2CCCC2)cc1 (centres unmarked) [Compound 7b, N′-(2-Cyclopentyl-2-(2,4,5-trifluorophenyl)acetyl)-3-(p-tolyl)acrylohydrazide]
IC50 [1, 3]: 14.5 nM

O=C(C=Cc1ccc(Br)cc1)NNC(=O)C(c1cc(F)c(F)cc1F)C1CCCC1 (centres unmarked) [Compound 7c, 3-(4-Bromophenyl)-N′-(2-cyclopentyl-2-(2,4,5-trifluorophenyl)acetyl)acrylohydrazide]
IC50 [1, 3]: 49.3 nM

O=C(C=Cc1cccc(Cl)c1)NNC(=O)C(c1cc(F)c(F)cc1F)C1CCCC1 (centres unmarked) [Compound 7d, 3-(3-Chlorophenyl)-N′-(2-cyclopentyl-2-(2,4,5-trifluorophenyl)acetyl)acrylohydrazide]
IC50 [1, 3]: 18.9 nM

COc1ccc(C=CC(=O)NNC(=O)C(c2cc(F)c(F)cc2F)C2CCCC2)cc1 (centres unmarked) [Compound 7e, N′-(2-Cyclopentyl-2-(2,4,5-trifluorophenyl)acetyl)-3-(4-methoxyphenyl)acrylohydrazide]
IC50 (α-glucosidase inhibition) [1, 2]: no effect on inhibition

O=C(C=Cc1cccc(Br)c1)NNC(=O)C(c1cc(F)c(F)cc1F)C1CCCC1 (centres unmarked) [Compound 7f, 3-(3-Bromophenyl)-N′-(2-cyclopentyl-2-(2,4,5-trifluorophenyl)acetyl)acrylohydrazide]
IC50 [1]: 33.2 nM

O=C(C=Cc1cccc([N+](=O)[O-])c1)NNC(=O)C(c1cc(F)c(F)cc1F)C1CCCC1 (centres unmarked) [Compound 7g, 3-(3-Nitrophenyl)-N′-(2-cyclopentyl-2-(2,4,5-trifluorophenyl)acetyl)acrylohydrazide]
IC50 [1]: 54.8 nM

CC(C(=O)NN)c1ccc(-c2ccccc2)c(F)c1 (centres unmarked) [III]
IC50 (α-glucosidase; [4]): 25200 nM

O=C(/C=C/c1ccc(O)cc1)N1CC(O)C(O)C1 (centres unmarked) [II]
IC50 (α-glucosidase; deacetylsarmentamide derivative): 546000 nM

CC(C(=O)NNC(=O)c1cccc(Cl)c1)c1ccc(-c2ccccc2)c(F)c1 (centres unmarked) [IV]
IC50 (α-glucosidase; [4]): 10400 nM

C=CCc1ccc(OC(=O)/C=C/c2ccc(O)cc2)c(-c2cc(CC=C)ccc2OC(=O)/C=C/c2ccc(O)cc2)c1 [I]
Ki (α-glucosidase; Fig. 1): 2480 nM
IC50 (α-glucosidase; cinnamic acid magnolol derivative): 5110 nM

O=[N+]([O-])c1ccc2cc(-c3ncc(-c4ccccc4F)o3)oc2c1 [VI]
IC50 (α-glucosidase; [5]): 13400 nM

Fc1ccccc1/C=N/c1ccc2cn[nH]c2c1 [V]
IC50 (α-glucosidase; [5]): 8510 nM
